Like-named read-outs stand apart in the source and are kept apart here.
Experiments:
[1] = test system: Staphylococcus aureus Tour; assay: In vitro MIC, two-fold dilution test in microtiter; format: cell-based; settings: Oxoid ISO-SENSITEST broth, inoculum about 10^4 CFU/ml, 18-24 h at 37° C.
Method: (§1) Broth cultures are diluted enough so that the final inoculum is about 10^4 colony forming units/ml (CFU/ml).

[2] = test system: Staphylococcus epidermidis ATCC 12228; assay: In vitro MIC, two-fold dilution test in microtiter; format: cell-based; settings: Oxoid ISO-SENSITEST broth, inoculum about 10^4 CFU/ml, 18-24 h at 37° C.
Method: as §1

[3] = test system: Streptococcus faecalis ATCC 7080; assay: In vitro MIC, two-fold dilution test in microtiter; format: cell-based; settings: Oxoid ISO-SENSITEST broth, inoculum about 10^4 CFU/ml, 18-24 h at 37° C.
Method: as §1

Streptococcus mitis 796 = assay: In vitro MIC, two-fold dilution test in microtiter; format: cell-based; settings: inoculum about 10^4 CFU/ml, 18-24 h at 37° C.
Method: as §1

[4] = test system: Streptococcus pneumoniae UC41; assay: In vitro MIC, two-fold dilution test in microtiter; format: cell-based; settings: Difco Todd-Hewitt broth, inoculum about 10^4 CFU/ml, 18-24 h at 37° C.
Method: as §1

Strept. pyogenes C 203 = assay: In vitro MIC, two-fold dilution test in microtiter; format: cell-based, Streptococcus pyogenes; settings: Difco Todd-Hewitt broth, inoculum about 10^4 CFU/ml, 18-24 h at 37° C.
Method: as §1

[5] = Acid-base titration (pKa); format: physicochemical
Method: Acid-base titrations were carried out under the following conditions: the sample was dissolved in a mixture methyl cellosolve/H2 O 4/1, then an excess of 0.01M HCl in the same solvent mixture was added and the resulting solution was titrated with 0.01N NaOH.

[6] = methyl cellosolve/H2O 4/1, excess 0.01M HCl, titrated with 0.01N NaOH

Substance	MIC, STAPH. AUREUS TOUR [1] [micrograms/ml]	MIC, STAPH. EPIDERMIDIS ATCC 12228 [2] [micrograms/ml]	MIC, STREPT. FAECALIS ATCC 7080 [3] [micrograms/ml]	MIC, STREPT. MITIS 796 (Streptococcus mitis 796) [micrograms/ml]	MIC, STREPT. PNEUMONIAE UC 41 [4] [micrograms/ml]	MIC, STREPT. PYOGENES C 203 (Strept. pyogenes C 203) [micrograms/ml]	pKa1 [5]	pKa2 [5]	pKa3 [5]	pKa1 [5, 6]	pKa2 [5, 6]	pKa3 [5, 6]
reductive cleavage product of teicoplanin A2 component 2 [Example 2]	8	2	4	4	4	1	4.1	5.9	7.3	–	–	–
reductive cleavage product of antibiotic L 17392 [Example 5]	4	2	16	16	16	8	4.5	5.5	–	–	–	–
reductive cleavage product of antibiotic L 17054 [Example 3]	–	–	–	–	–	–	–	–	–	4.7	–	–
reductive cleavage product of antibiotic A/40926 [Example 9]	16	–	–	–	16	2	4.5	5.9	7.5	–	–	–
reductive cleavage product of antibiotic L 17046 [Example 4]	–	–	–	–	–	–	–	–	–	4.6	5.8	7.5
reductive cleavage product of ristocetin [Example 8]	–	–	–	–	–	–	–	–	–	–	6.2	7.8
reductive cleavage product of vancomycin [Example 6]	16	32	16	–	–	8	–	–	–	–	–	–

Reference: patent US5602229A, “Pentapeptide antibiotics” (Gruppo Lepetit S.p.A., priority 1989, dated 1997)
